Measured values as given in patent EP4361137A1, “PRUNE1 INHIBITORS AND THERAPEUTIC USE THEREOF” (CEINGE Biotecnologie Avanzate Franco Salvatore s.c. a r.l., priority 2022, dated 2024).

Assays:
[1] = target: T1, Prune1 (Homo sapiens, UniProt Q86TP1); assay: Immunoblotting and densitometry of Prune1 in D425-MED cells; type: cell-based
T1 construct: endogenous in cells; host or cells: D425-MED cells
T1 sequence (Q86TP1 1-453): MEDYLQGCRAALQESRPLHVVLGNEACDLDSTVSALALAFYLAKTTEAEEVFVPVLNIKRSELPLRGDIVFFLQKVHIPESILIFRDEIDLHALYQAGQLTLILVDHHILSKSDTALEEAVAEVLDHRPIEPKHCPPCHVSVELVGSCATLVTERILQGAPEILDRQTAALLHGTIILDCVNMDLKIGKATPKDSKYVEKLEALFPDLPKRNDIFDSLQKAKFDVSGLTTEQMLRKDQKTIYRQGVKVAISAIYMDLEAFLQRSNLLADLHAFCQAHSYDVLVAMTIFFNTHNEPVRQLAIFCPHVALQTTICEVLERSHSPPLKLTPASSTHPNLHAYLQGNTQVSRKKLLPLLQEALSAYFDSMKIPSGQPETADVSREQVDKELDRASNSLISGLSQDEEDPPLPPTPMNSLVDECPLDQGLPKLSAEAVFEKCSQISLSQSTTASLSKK
Procedure: D425.MED and MMTV-Prune1/Wnt1 cells were plated and treated with increasing concentrations of LEO-AA7.5(S)T for 24 hours. Water-treated cells were used as negative control for the experiments.
Cells for immunoblotting analysis were washed in cold PBS and lysed in cell lysis buffer [20 mM sodium phosphate (pH 7.4), 150 mM NaCl, 10% (v/v) glycerol, 1% (w/v) sodium deoxycholate, 1% (v/v) Triton X-100] supplemented with protease inhibitors (Roche). The resulting cell lysates were cleared by centrifugation at 16,200g for 10 min at room temperature, and the supernatants were re- moved and assayed for protein concentrations with the Protein Assay Dye Reagent (Bio-Rad). The cell lysates (30 µg) were resolved by SDS-polyacrylamide gel electrophoresis (SDS-PAGE) gels of different percentages, which depended on the molecular weights of the proteins of interest. The proteins were then electrophoretically transferred to polyvinylidene difluoride (PVDF) membranes (Millipore). After 1 hour in blocking solution with 5% (w/v) dry milk fat in PBS or 5% (w/v) BSA (Sigma-Aldrich) in tris-buffered saline [both of which contained 0.02% (v/v) Tween 20] […] The peak areas of the bands were measured on the densitometry plots, and the relative proportions (percentages) were calculated. […]

[2] = test system: CD4+/ CD8+ T cells; assay: Tconv to Treg conversion of T cells grown in conditioned media (immunofluorescence CD4/FOXP3); type: cell-based, FVB mice
Procedure: The isolation of untouched mouse CD4+/ CD8+ T cells from single-cell suspensions from spleen of n.2 naive FVB mice were performed by using Pan T Cell Isolation Kit II, mouse (130-095-130, Miltenyi biotec), according to the manufacturer instruction. Once isolated, T cells were grown for 48 hours in the conditioned media previously collected for 24 hours from pooled vehicle- or 10 µM LEO-AA7.5(S)T-treated MATH1-Prune1/TP53-/- cells.
T cells grown for 48 hours in conditioned media collected from vehicle- or LEO-AA7.5(S)T-treated MATH1-Prune1/TP53-/- cells were fixed in 4% paraformaldehyde in phosphate-buffered saline (PBS) for 30 min, washed three times with PBS, and permeabilized for 15 min with 0.1% Triton X-100 (215680010; Acros Organics) diluted in PBS. The cells were then blocked with 3% bovine serum albumin (A9418; Sigma) in PBS for 1 h at room temperature. The samples were incubated with the appropriate primary antibodies overnight at 4 °C: anti-FOXP3 (1:2000; ab54501; Abcam); anti-CD4 (1:100; sc-19641, SantaCruz). After washing with PBS, the samples were incubated with the secondary antibody at room temperature for 1 h, as anti-mouse Alexa Fluor 488 (1:200; ab 150113; Abcam) or anti-rabbit Alexa Fluor 546 (1:200; Abcam). DNA was stained with DAPI (1:1000; #62254, Thermo Fisher). The slides were washed and mounted with cover slips with 50% glycerol (G5150; Sigma-Aldrich). […]

COc1ccc(CNc2ncnc(N3CCC[C@H](CO)C3)n2)cc1.Cl [LEO-AA7.5(S)T, (S)-(1-(4-((4-methoxybenzyl)amino)-1,3,5-triazin-2-yl)piperidin-3-yl)methanol HCl salt]
dose effective on Prune1 target inhibition/degradation in vitro, lower than AA7.1 ([1]; 10 µM vs 100 µM AA7.1): 10 fold
Prune1 protein levels ([1]; D425-Med cells, 10 µM, 24 hours, densitometry relative to vehicle): 0.6 fold
percentage of Tregs (CD4+FOXP3+) among T cells ([2]; T cells 48 hours in conditioned media of cells treated with 10 µM for 24 hours, vs vehicle conditioned media): decrease
inhibition of the conversion from Tconv to Treg cells, compared with 100 µM AA7.1 ([2]; ex vivo, 10 µM vs 100 µM AA7.1): comparable
